Values of other authors in PMC7618104, “The GLP-1 analogue, exendin-4, improves bone material properties and strength through a central relay in ovariectomized mice” (American journal of physiology. Endocrinology and metabolism, 2025).
Ends that are not written are not given here.

Key:
[1] = system: CNS; conditions: mouse, in vivo, iv; cited from earlier work
From the text: (§1) Taken altogether, these studies might support a brain entry through adsorptive transcytosis across brain endothelial cells. The l ...

[2] = system: humans; conditions: exogenous GLP-1, humans; cited from earlier work
From the text: (§2) Previously, we and others have highlighted the beneficial role of several gut hormones on bone physiology ([5]). Among gut hormones, glucagon-like peptide-1 (GLP-1) was reported to be beneficial for bone strength. Indeed, animals with a genetic impairment of the GLP-1 receptor (GLP-1r) presented with reduced bone mass, deterioration of bone microarchitecture and alterations of bone material properties, especially enzymatic collagen crosslinking, that jeopardized bone strength ([6], [7]). In humans, GLP-1r gene polymorphisms have also been reported to impact bone mineral density and mass ([8]) ...

[3] = system: osteoblast cultures; conditions: in vitro study; cited from earlier work
From the text: These observations formed the basis for investigating the potential utility of a GLP-1r agonist for the management of bone fragility. Ex-4 has already been administered subcutaneously in preclinical models of bone fragility, including the OVX model used in the present study. Previous studies have reported positive effects of Ex-4 that increased bone mineral density, trabecular microstructure and circulating calcitonin leve ...

[4] = system: brain; conditions: in vivo; cited from earlier work
From the text: as §1

[5] = system: streptozotocin-induced type 1 diabetes mellitus; conditions: cited from earlier work
[6] = system: individuals in randomized clinical trials; conditions: cited from earlier work
From the text: as §2

Substance	brain entry after peripheral administration [4]	fracture in individuals affected by type 2 diabetes mellitus [6]	also measured
[Ser8]GLP-1: radiolabeled [Ser8]GLP-1, a stable analogue of GLP-1 (HSEGTFTSDVSSYLEGQAAKEFIAWLVKGRG; also: radiolabeled; UniProt P01275 98-128, looked up, variant A8S)	–	–	CNS access, inhibition by excess unlabeled peptide or exendin antagonist [1]: not inhibited by excess doses
glucagon-like peptide-1 (HAEGTFTSDVSSYLEGQAAKEFIAWLVKGR; ends and bridges not checked; UniProt P01275 98-127, looked up) [GLP-1, gut hormone]	–	–	bone remodeling [2]: rapidly modulates bone remodeling; collagen maturity in vitro [3]: no direct positive effects of GLP-1 on collagen maturity
liraglutide	reported to enter the brain parenchyma	contribute to reduce fracture	bone resistance to fracture [5]: able to enhance bone resistance to fracture
semaglutide	reported to enter the brain parenchyma	–	–
lixisenatide	–	contribute to reduce fracture	–
